Measurements published in patent US9827292B2, “Use of KGF in the treatment of menopausal disorders” (Università degli Studi di Roma “La Sapienza”, priority 2012, dated 2017).

B1: keratinocyte growth factor (protein, listed as Homo sapiens)
chain: MHKWILTWILPTLLYRSCFHIICLVGTISLACNDMTPEQMATNVNCSSPERHTRSYDYMEGGDIRVRRLFCRTQWYLRIDKRGKVKGTQEMKNNYNIMEIRTVAVGIVAIKGVESEFYLAMNKEGKLYAKKECNEDCNFKELILENHYNTYASAKWTHNGGEMFVALNQKGIPVRGKKTKKEQKTAHFLPMAIT
notes: human recombinant KGF (Upstate Biotechnology)

How the values were obtained:
Assay type in all cases: cell-based, human
ERalpha = assay: Immunofluorescence localisation of ER in MCF-7 cells; details: 5 or 30 min treatment, FIG. 4B
Experimental: (§1) The oestrogen receptor α-positive MCF-7 human breast adenocarcinoma cell line, acquired from American Type Culture Collection (no. HTB-22, ATCC-LGC Promochem, Teddington, UK), was cultured in Dulbecco's modified eagle's medium (DMEM; Invitrogen, Karlsruhe, Germany), supplemented with 10% foetal bovine serum (FBS; Invitrogen) and antibiotics. Primary cultures of human oestrogen-sensitive keratinocytes (KCs) were established from 1 cm^2 full-thickness mucosal biopsy of the vaginal vestibule. […]
The cells, grown on glass coverslips, were treated as described above, then fixed in 4% paraformaldehyde in phosphate-buffered saline (PBS) for 30 min at 25° C., followed by treatment with 0.1 M glycine in PBS for 20 min at 25° C. and with 0.1% Triton X-100 in PBS for an additional 5 min at 25° C. to allow permeabilisation. […] Fluorescence signals were analysed by recording stained images using a cooled CCD colour digital camera SPOT-2 (Diagnostic Instruments Incorporated, Sterling Heights, Mich.) and Axiovision software (Carl Zeiss Inc., Oberkochen, Germany).
The percentage of Ki67-positive cells was evaluated by counting, for each treatment, a total of 500 cells, randomly taken from ten microscopic fields in three different experiments, expressed as mean value±95% CI and recorded as graphs. […]

KGFR = KGFR protein expression by Western blot in MCF-7 cells; details: E2 20 ng/ml, 24 h, FIG. 3A
Experimental: as §1, with “vestibule. Following enzymatic dissociation, the keratinocytes were seeded onto culture plates coated with collagen IV (10 mg/ml), as previously reported [Panici et al, 2007], and were maintained in basal medium of the keratinocytes (KBM, Lonza) supplemented with aliquots of KGM (Lonza), with medium change twice a week.” for “vestibule.”
MCF-7 cells untreated or treated with KGF or E2 were lysed in RIPA buffer. […] The bound antibody was detected by enhanced chemiluminescence detection reagents (Pierce Biotechnology, Inc, Rockford, Ill., USA), according to manufacturer's instructions. […] Densitometric analysis was performed using Quantity One Program (Bio-Rad Laboratories srl, Segrate, MI, Italy).

MAPK ERK1 and 2 = assay: Western blot of ERK phosphorylation in MCF-7 cells; details: 20 ng/ml, FIG. 2A; for activation (phosphorylation) of ERK1 and 2: 5 and 30 minutes of treatment
Experimental: The oestrogen receptor α-positive MCF-7 human breast adenocarcinoma cell line, acquired from American Type Culture Collection (no. HTB-22, ATCC-LGC Promochem, Teddington, UK), was cultured in Dulbecco's modified eagle's medium (DMEM; Invitrogen, Karlsruhe, Germany), supplemented with 10% foetal bovine serum (FBS; Invitrogen) and antibiotics. Primary cultures of human oestrogen-sensitive keratinocytes (KCs) were established from 1 cm^2 full-thickness mucosal biopsy of the vaginal vestibule. Following enzymatic dissociation, the keratinocytes were seeded onto culture plates coated with collagen IV (10 mg/ml), as previously reported [Panici et al, 2007], and were maintained in basal medium of the keratinocytes (KBM, Lonza) supplemented with aliquots of KGM (Lonza), with medium change twice a week. For all the experiments with 17β-oestradiol (E2) and tamoxifen, the MCF-7 cells were cultivated in DMEM without phenol red with 10% FBS treated with dextran/carbon (Invitrogen), and the KCs were transferred to a steroid medium of reduced concentration (KGM without EGF and BPE). Both MCF-7 and KC were deprived of serum for 4 hours and then treated for 48 h with human recombinant KGF (Upstate Biotechnology, Lake Placid, N.Y.), E2 (Sigma-Aldrich, Milan, Italy), tamoxifen (Sigma-Aldrich, 100 nM) or combinations thereof.
MCF-7 cells untreated or treated with KGF or E2 were lysed in RIPA buffer. Total proteins (50-150 μg) were broken down under reducing conditions by 7%-10% SDS-PAGE and transferred to Immobilon-FL membranes (Millipore, Billerica, Mass.). The membranes were blocked in TBS containing 0.5% Tween 20 (TBS-T) and 5% milk for 1 hour at 25° C. and were then washed twice for 20 minutes in each case in TBS-T. The membranes were incubated overnight at 4° C. with the primary antibody. […] The bound antibody was detected by enhanced chemiluminescence detection reagents (Pierce Biotechnology, Inc, Rockford, Ill., USA), according to manufacturer's instructions. […] Densitometric analysis was performed using Quantity One Program (Bio-Rad Laboratories srl, Segrate, MI, Italy).

[1] = system: oestrogen response elements (EREs); assay: ERE-LUC dual-luciferase reporter assay in MCF-7 cells; details: 24 h treatment, FIG. 5
Experimental: MCF-7 cells were seeded onto 24-well plates with a cell/well density of […] and were co-transfected with 1 μg of the 3×ERE TATA LUC construct, a plasmid containing the reporter gene for firefly luciferase under the control of three DNA sequences to which the ER binds, called oestrogen response elements (EREs) (Addgene), and with 300 ng of control pRL-TK plasmid (renilla luciferase) for normalisation of the efficiency of the transfection process. The transfections were carried out using lipofectamine 2000 (Invitrogen) according to manufacturer's instructions. After 6 h, the cells were treated with KGF or E2. The luciferase activity was determined using a dual-luciferase reporter assay system (Promega) 24 h after the treatment, according to manufacturer's protocol. All the transfections were conducted in triplicate.

Row | Molecule | cellular localisation of ER by immunofluorescence (ERalpha) | KGFR protein level (KGFR) | activation (phosphorylation) of ERK1 and 2 (MAPK ERK1 and 2) | activation of ERK 1 and 2 at longer times (MAPK ERK1 and 2; 30 min) | activation of ERE-luciferase construct (genomic pathway) [1]
1 | C[C@]12CC[C@@H]3c4ccc(O)cc4CC[C@H]3[C@@H]1CC[C@@H]2O [E2, 17β-oestradiol] | movement of ER in the nucleus | a rise in the protein KGFR | less consistent rise in the levels of phosphorylation of ERK1 and 2 limited to 5 min of treatment | considerably reduced | able to determine the activation of such a construction
2 | B1 | unexpected localisation of ER on the plasmatic membrane |  | consistent and constant activation of MAPK |  | absence of stimulation of the genomic pathway of the oestrogens
